Experimental data reported in patent US12077503B2, “Substituted cyclic amides and their use as herbicides” (FMC CORPORATION, priority 2015, dated 2024).

What was measured:
Format in all cases: in vivo
[1] = system: giant foxtail (Setaria faberii); assay: Test A preemergence; settings: Setaria faberi, pre-emergence, 240 h; for pest or weed control at 125 g/ha: 125 g ai/ha, Preemergence, visual injury rating after approximately 10 d, read-out: Foxtail, Giant plant response rating (0 to 100 scale, 0 is no effect, 100 is complete control); for pest or weed control at 500 g/ha: 500 g ai/ha, preemergence, visual injury rating about 10 d after treatment, 0 to 100 scale (0 no effect, 100 complete control), read-out: Foxtail, Giant plant response rating
Outline: (§1)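 Each rating is a visual injury score from 0 to 100 given about 10 d after treatment, judged against untreated controls kept alongside in the greenhouse. In loam soil–sand blend, seeds got a preemergence directed soil spray, while postemergence plants were 2 to 10 cm tall at spraying.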

[2] = system: pigweed (Amaranthus retroflexus); assay: Test A preemergence; settings: Amaranthus retroflexus, pre-emergence, 240 h; for pest or weed control at 125 g/ha: 125 g ai/ha, Preemergence, visual injury rating after approximately 10 d, read-out: Pigweed plant response rating (0 to 100 scale, 0 is no effect, 100 is complete control); for pest or weed control at 500 g/ha: 500 g ai/ha, preemergence, visual injury rating about 10 d after treatment, 0 to 100 scale (0 no effect, 100 complete control), read-out: Pigweed plant response rating
[3] = system: ragweed (common ragweed, Ambrosia elatior); assay: Test A preemergence; settings: Ambrosia artemisiifolia, pre-emergence, 240 h; for pest or weed control at 125 g/ha: 125 g ai/ha, Preemergence, visual injury rating after approximately 10 d, read-out: Ragweed plant response rating (0 to 100 scale, 0 is no effect, 100 is complete control); for pest or weed control at 500 g/ha: 500 g ai/ha, preemergence, visual injury rating about 10 d after treatment, 0 to 100 scale (0 no effect, 100 complete control), read-out: Ragweed plant response rating
Outline: as §1

Kochia (Kochia scoparia) [4] = assay: Test A preemergence; settings: Bassia scoparia, pre-emergence, 240 h; for pest or weed control at 125 g/ha: 125 g ai/ha, Preemergence, visual injury rating after approximately 10 d, read-out: Kochia plant response rating (0 to 100 scale, 0 is no effect, 100 is complete control); for pest or weed control at 500 g/ha: 500 g ai/ha, preemergence, visual injury rating about 10 d after treatment, 0 to 100 scale (0 no effect, 100 complete control), read-out: Kochia plant response rating
Outline: as §1

[5] = system: ryegrass, Italian (Italian ryegrass, Lolium multiflorum); assay: Test A preemergence; settings: Lolium multiflorum, pre-emergence, 240 h; for pest or weed control at 125 g/ha: 125 g ai/ha, Preemergence, visual injury rating after approximately 10 d, read-out: Ryegrass, Italian plant response rating (0 to 100 scale, 0 is no effect, 100 is complete control); for pest or weed control at 500 g/ha: 500 g ai/ha, preemergence, visual injury rating about 10 d after treatment, 0 to 100 scale (0 no effect, 100 complete control), read-out: Ryegrass, Italian plant response rating
Outline: as §1

[6] = system: barnyardgrass (Echinochloa crus-galli); assay: Test A preemergence; settings: Echinochloa crus-galli, pre-emergence, 240 h; for pest or weed control at 125 g/ha: 125 g ai/ha, Preemergence, visual injury rating after approximately 10 d, read-out: Barnyardgrass plant response rating (0 to 100 scale, 0 is no effect, 100 is complete control); for pest or weed control at 500 g/ha: 500 g ai/ha, preemergence, visual injury rating about 10 d after treatment, 0 to 100 scale (0 no effect, 100 complete control), read-out: Barnyardgrass plant response rating
Outline: as §1

[7] = system: wheat (Triticum aestivum); assay: Test A postemergence; settings: Triticum aestivum, post-emergence, 240 h, 125 g ai/ha, Postemergence; visual injury after approximately 10 d; 0 to 100 scale where 0 is no effect and 100 is complete control; read-out: Plant response rating, Wheat
Outline: as §1

[8] = system: Galium (catchweed bedstraw, Galium aparine); assay: Test A postemergence; settings: Galium, post-emergence, 240 h, 125 g ai/ha, Postemergence; visual injury after approximately 10 d; 0 to 100 scale where 0 is no effect and 100 is complete control; read-out: Plant response rating, Galium
Outline: as §1

[9] = system: giant foxtail (Setaria faberii); assay: Test A postemergence; settings: Setaria faberi, post-emergence, 240 h, 125 g ai/ha, Postemergence; visual injury after approximately 10 d; 0 to 100 scale where 0 is no effect and 100 is complete control; read-out: Plant response rating, Foxtail, Giant
Outline: as §1

[10] = system: pigweed (Amaranthus retroflexus); assay: Test A postemergence; settings: Amaranthus retroflexus, post-emergence, 240 h, 125 g ai/ha, Postemergence; visual injury after approximately 10 d; 0 to 100 scale where 0 is no effect and 100 is complete control; read-out: Plant response rating, Pigweed
Outline: as §1

[11] = system: ragweed (common ragweed, Ambrosia elatior); assay: Test A postemergence; settings: Ambrosia artemisiifolia, post-emergence, 240 h, 125 g ai/ha, Postemergence; visual injury after approximately 10 d; 0 to 100 scale where 0 is no effect and 100 is complete control; read-out: Plant response rating, Ragweed
Outline: as §1

corn (Zea mays) = assay: Test A postemergence; settings: Zea mays, post-emergence, 240 h, 125 g ai/ha, Postemergence; visual injury after approximately 10 d; 0 to 100 scale where 0 is no effect and 100 is complete control
Outline: as §1

Kochia (Kochia scoparia) [12] = assay: Test A postemergence; settings: Bassia scoparia, post-emergence, 240 h, 125 g ai/ha, Postemergence; visual injury after approximately 10 d; 0 to 100 scale where 0 is no effect and 100 is complete control; read-out: Plant response rating, Kochia
Outline: as §1

[13] = system: blackgrass (Alopecurus myosuroides); assay: Test A postemergence; settings: Alopecurus myosuroides, post-emergence, 240 h, 125 g ai/ha, Postemergence; visual injury after approximately 10 d; 0 to 100 scale where 0 is no effect and 100 is complete control; read-out: Plant response rating, Blackgrass
Outline: as §1

[14] = system: ryegrass, Italian (Italian ryegrass, Lolium multiflorum); assay: Test A postemergence; settings: Lolium multiflorum, post-emergence, 240 h, 125 g ai/ha, Postemergence; visual injury after approximately 10 d; 0 to 100 scale where 0 is no effect and 100 is complete control; read-out: Plant response rating, Ryegrass, Italian
Outline: as §1

[15] = system: barnyardgrass (Echinochloa crus-galli); assay: Test A postemergence; settings: Echinochloa crus-galli, post-emergence, 240 h, 125 g ai/ha, Postemergence; visual injury after approximately 10 d; 0 to 100 scale where 0 is no effect and 100 is complete control; read-out: Plant response rating, Barnyardgrass
Outline: as §1

[16] = system: sedge, umbrella (small-flower umbrella sedge, Cyperus difformis); assay: Test B flooded paddy test; settings: Cyperus difformis, 250 g ai/ha, Flood; 0 to 100 scale where 0 is no effect and 100 is complete control; read-out: Sedge, Umbrella plant response rating
Outline: (§2)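 Percent control, visually estimated after 13–15 d in the greenhouse on a 0–100 basis, compares treated pots with untreated ones; compound was put into paddy water 3 cm above the soil when plants had two leaves.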

[17] = system: ducksalad (Heteranthera limosa); assay: Test B flooded paddy test; settings: Heteranthera limosa, Flood, 250 g ai/ha; scale of 0 to 100 where 0 is no effect and 100 is complete control; read-out: Ducksalad plant response rating
Outline: as §2

rice (Oryra sativa) = assay: Test B flooded paddy test; settings: Oryza sativa, Flood, 250 g ai/ha; scale of 0 to 100 where 0 is no effect and 100 is complete control; read-out: Rice plant response rating
Outline: as §2

[18] = system: barnyardgrass (Echinochloa crus-galli); assay: Test B flooded paddy test; settings: Echinochloa crus-galli, Flood, 250 g ai/ha; scale of 0 to 100 where 0 is no effect and 100 is complete control; read-out: Barnyardgrass plant response rating
Outline: as §2

CN1C[C@H](c2cc(F)cc(F)c2)[C@@H](C(=O)Nc2ccc(O)cc2F)C1=O [Compound 985] showed a pest or weed control at 125 g/ha [1] of 0%, a pest or weed control at 500 g/ha [1] of 0% and a pest or weed control at 125 g/ha [2] of 0%. It also gave a pest or weed control at 500 g/ha [2] of 0%, a pest or weed control at 125 g/ha [3] of 0% and a pest or weed control at 500 g/ha [3] of 0%. The pest or weed control at 125 g/ha (Kochia (Kochia scoparia) [4]) was 0%, the pest or weed control at 500 g/ha (Kochia (Kochia scoparia) [4]) was 0% and the pest or weed control at 125 g/ha [5] was 0%. The pest or weed control at 500 g/ha [5] was 0%, the pest or weed control at 125 g/ha [6] was 0% and the pest or weed control at 500 g/ha [6] was 0%. For the same compound, the plant injury at 125 g/ha [7] was 0%, the pest or weed control at 125 g/ha [8] was 0% and the pest or weed control at 125 g/ha [9] was 0%. It also gave a pest or weed control at 125 g/ha [10] of 0%, a pest or weed control at 125 g/ha [11] of 0% and a Corn plant response rating (crop injury, 0 = no effect, 100 = complete kill) at 125 g/ha (corn (Zea mays)) of 0%. The pest or weed control at 125 g/ha (Kochia (Kochia scoparia) [12]) was 0%, the pest or weed control at 125 g/ha [13] was 0% and the pest or weed control at 125 g/ha [14] was 0%. The pest or weed control at 125 g/ha [15] was 0%, the pest or weed control at 250 g/ha [16] was 0% and the pest or weed control at 250 g/ha [17] was 40%. It also gave a pest or weed control at 250 g/ha (rice (Oryra sativa)) of 0% and a pest or weed control at 250 g/ha [18] of 0%.
COc1ccc([C@H]2CN(C)C(=O)[C@@H]2C(=O)Nc2cccc(F)c2F)cc1C(F)(F)F [Compound 986] showed a pest or weed control at 125 g/ha [1] of 100%, a pest or weed control at 500 g/ha [1] of 100% and a pest or weed control at 125 g/ha [2] of 60%. The pest or weed control at 500 g/ha [2] was 70%, the pest or weed control at 125 g/ha [3] was 50% and the pest or weed control at 500 g/ha [3] was 70%. It also gave a pest or weed control at 125 g/ha (Kochia (Kochia scoparia) [4]) of 30%, a pest or weed control at 500 g/ha (Kochia (Kochia scoparia) [4]) of 70% and a pest or weed control at 125 g/ha [5] of 60%. The pest or weed control at 500 g/ha [5] was 80%, the pest or weed control at 125 g/ha [6] was 90% and the pest or weed control at 500 g/ha [6] was 90%. It also gave a plant injury at 125 g/ha [7] of 20%, a pest or weed control at 125 g/ha [8] of 30% and a pest or weed control at 125 g/ha [9] of 90%. The pest or weed control at 125 g/ha [10] was 0%, the pest or weed control at 125 g/ha [11] was 0% and the Corn plant response rating (crop injury, 0 = no effect, 100 = complete kill) at 125 g/ha (corn (Zea mays)) was 80%. The pest or weed control at 125 g/ha (Kochia (Kochia scoparia) [12]) was 30%, the pest or weed control at 125 g/ha [13] was 40% and the pest or weed control at 125 g/ha [14] was 30%. The pest or weed control at 125 g/ha [15] was 80%, the pest or weed control at 250 g/ha [16] was 0% and the pest or weed control at 250 g/ha [17] was 75%. The pest or weed control at 250 g/ha (rice (Oryra sativa)) was 20% and the pest or weed control at 250 g/ha [18] was 55%.
Compound CSc1ccccc1NC(=O)[C@H]1C(=O)N(C)C[C@@H]1c1ccc(F)c(Br)c1 [Compound 990] has a pest or weed control at 125 g/ha [1] of 100%, a pest or weed control at 500 g/ha [1] of 100% and a pest or weed control at 125 g/ha [2] of 40%. For the same compound, the pest or weed control at 500 g/ha [2] was 80%, the pest or weed control at 125 g/ha [3] was 50% and the pest or weed control at 500 g/ha [3] was 80%. The pest or weed control at 125 g/ha (Kochia (Kochia scoparia) [4]) was 70%, the pest or weed control at 500 g/ha (Kochia (Kochia scoparia) [4]) was 90% and the pest or weed control at 125 g/ha [5] was 0%. The pest or weed control at 500 g/ha [5] was 60%, the pest or weed control at 125 g/ha [6] was 100% and the pest or weed control at 500 g/ha [6] was 100%. For the same compound, the plant injury at 125 g/ha [7] was 0%, the pest or weed control at 125 g/ha [8] was 60% and the pest or weed control at 125 g/ha [9] was 80%. The pest or weed control at 125 g/ha [10] was 30%, the pest or weed control at 125 g/ha [11] was 0% and the Corn plant response rating (crop injury, 0 = no effect, 100 = complete kill) at 125 g/ha (corn (Zea mays)) was 40%. It also gave a pest or weed control at 125 g/ha (Kochia (Kochia scoparia) [12]) of 40%, a pest or weed control at 125 g/ha [13] of 0% and a pest or weed control at 125 g/ha [14] of 20%. For the same compound, the pest or weed control at 125 g/ha [15] was 90%, the pest or weed control at 250 g/ha [16] was 0% and the pest or weed control at 250 g/ha [17] was 100%. It also gave a pest or weed control at 250 g/ha (rice (Oryra sativa)) of 55% and a pest or weed control at 250 g/ha [18] of 50%.
